{
  "source": "patent US12377152B2",
  "about": "“Compounds for degrading alpha-synuclein aggregates and uses thereof” (APRINOIA THERAPEUTICS LIMITED, priority 2019, dated 2025)",
  "data": [
    {"target": "α-synuclein aggregates (Homo sapiens (Human), UniProt P37840)", "assay": "ReNcell VM α-synuclein aggregation assay", "type": "cell-based", "conditions": "24 hour treatment, differentiated ReNcell VM cells", "experimental": "(§1) The ReNcell VM α-synuclein aggregation assay was conducted at Charles River Laboratories (CRL). ReNcell VM is an immortalized human neural progenitor cell line derived from the ventral mesencephalon region of the brain. ReNcell VM cells were selected as in vitro cellular model for the α-synuclein aggregation assay, based on their growth features, differentiation potential into terminally differentiated neurons and amenability to adenoviral transduction. Aggregated human wild type α-synuclein was overexpressed through adenoviral delivery. Aggregated α-synuclein was detected with the aggregate-selective anti-α-synuclein antibody MJFR14 using immunocytochemistry; total α-synuclein levels were detected with Syn205 (α/β-synuclein-specific antibody).\n(§2) The ReNcell VM α-synuclein aggregation assay was applied for compound screening to identify compounds capable of degrading α-synuclein aggregates. […] Immunoreactivity toward aggregated (MJFR14) and total α-synuclein (Syn205) was quantified using high content-based segmentation of immunoactive areas in immunocytochemical images (performed with the IN Cell 2200 (GE Healthcare)), followed by quantification of immunofluorescent intensity (performed by CRL's developed algorithm using IN Cell Developer Toolbox software).\n(§3) Percentage effect (PE): Inhibition in comparison to BLANK (0.1% DMSO).\n(§4) PE=100−(signal of compound/average signal BLANK)×100\n(§5) Compound-induced cytotoxicity (% remaining cells)\n(§6) % remaining cells=(nuclei count of compound/average nuclei count of BLANK)×100", "values": [
      {"smiles": "COc1ccc2nc(-c3ccc(-c4ccnc(NCCOCCOc5ccc6c(c5)CN(C5CCC(=O)NC5=O)C6=O)c4)cc3)cn2c1", "note": "(stereo not shown) [Compound 162640, 3-[6-[2-[2-[[4-[4-(6-methoxyimidazo[1,2-a]pyridin-2-yl)phenyl]pyridin-2-yl]amino]ethoxy]ethoxy]-3-oxidanylidene-1H-isoindol-2-yl]piperidine-2,6-dione]", "inhibition of MJFR14 immunoreactivity": "concentration-dependent inhibition"}
    ]},
    {"target": "α-synuclein aggregates (Homo sapiens (Human), UniProt P37840)", "assay": "ReNcell VM α-synuclein aggregation assay", "type": "cell-based", "conditions": "ReNcell VM cells; read-out: Activity (DC50, concentration at which 50% of α-synuclein aggregates has been degraded)", "experimental": "as §1, §2, §3, §4, §5, §6", "units": {"DC50": "µM"}, "values": [
      {"smiles": "Cc1ncsc1-c1ccc(CNC(=O)[C@@H]2C[C@@H](O)CN2C(=O)[C@@H](NC(=O)COCCOCCOCCOCCOCCNc2ccc3nc(-c4ccc(-c5ccc(N(C)C)nc5)cc4)sc3c2)C(C)(C)C)cc1", "note": "(racemic) [Compound 161247, rac-(2R,4S)—N-[[4-(4-methyl-1,3-thiazol-5-yl)phenyl]methyl]-4-hydroxy-1-[rac-(2R)-2-[2-[2-[2-[2-[2-[2-[[2-[4-[6-(dimethylamino)pyridin-3-yl]phenyl]-1,3-benzothiazol-6-yl]-amino]ethoxy]ethoxy]ethoxy]ethoxy]ethoxy]ethanoylamino]-3,3-dimethyl-butanoyl]pyrrolidine-2-carboxamide]", "DC50": "> 10"},
      {"smiles": "Cc1ncsc1-c1ccc(CNC(=O)[C@@H]2C[C@@H](O)CN2C(=O)[C@@H](NC(=O)COCCOCCOCCOCCOCCNc2ccc(-c3ccc(-c4nc5ccc(N(C)C)cc5s4)cc3)cn2)C(C)(C)C)cc1", "note": "(racemic) [Compound 161598, rac-(2R,4S)—N-[[4-(4-methyl-1,3-thiazol-5-yl)phenyl]methyl]-4-oxidanyl-1-[rac-(2R)-2-[2-[2-[2-[2-[2-[2-[[5-[4-[6-(dimethylamino)-1,3-benzothiazol-2-yl]phenyl]pyridin-2-yl]amino]ethoxy]ethoxy]ethoxy]ethoxy]ethoxy]ethanoylamino]-3,3-dimethyl-butanoyl]pyrrolidine-2-carboxamide]", "DC50": "> 10"},
      {"smiles": "CN(C)c1ccc(-c2ccc(-c3nc4ccc(NCCCOCCCOc5ccc6c(c5)CN(C5CCC(=O)NC5=O)C6=O)cc4s3)c(C(F)(F)F)c2)cn1", "note": "(stereo not shown) [Compound 123374]", "DC50": "> 10"},
      {"smiles": "COc1cc(-c2ccc(N(C)C)nc2)ccc1-c1nc2ccc(NCCOCCOc3ccc4c(c3)CN(C3CCC(=O)NC3=O)C4=O)cc2s1", "note": "(stereo not shown) [Compound 129071]", "DC50": "> 10"},
      {"smiles": "COc1ccc2nc(-c3ccc(-c4ccnc(NCCOCCOc5ccc6c(c5)C(=O)N(C5CCC(=O)NC5=O)C6=O)c4)cc3)cn2c1", "note": "(stereo not shown) [Compound 129975]", "DC50": "> 10"},
      {"smiles": "COc1ccc2nc(-c3ccc(-c4ccnc(NC(=O)CCCCOc5ccc6c(c5)CN(C5CCC(=O)NC5=O)C6=O)c4)cc3)cn2c1", "note": "(stereo not shown) [Compound 130177]", "DC50": "> 10"},
      {"smiles": "CN(C)c1ccc(-c2ccc(-c3nc4ccc(NC(=O)CCOCCOc5ccc6c(c5)CN(C5CCC(=O)NC5=O)C6=O)cc4s3)c(C(F)(F)F)c2)cn1", "note": "(stereo not shown) [Compound 132560]", "DC50": "> 10"},
      {"smiles": "CN1C(=O)CCC(N2Cc3cc(OCCOCCNc4ccc5nc(-c6ccc(-c7ccc(N(C)C)nc7)cc6C(F)(F)F)sc5c4)ccc3C2=O)C1=O", "note": "(stereo not shown) [Compound 133065]", "DC50": "> 10"},
      {"smiles": "O=C1CCC(N2Cc3cc(OCCCC(=O)Nc4cc(-c5ccc(-c6nc7ccc(F)cc7s6)cc5)ccn4)ccc3C2=O)C(=O)N1", "note": "(stereo not shown) [Compound 133678]", "DC50": "> 10"},
      {"smiles": "O=C1CCC(N2Cc3cc(OCCOCCNc4cc(-c5ccc(-c6cn7ccccc7n6)cc5)ccn4)ccc3C2=O)C(=O)N1", "note": "(stereo not shown) [Compound 137955]", "DC50": "> 10"},
      {"smiles": "CN(C)c1ccc(-c2ccc(-c3nc4ccc(NC(=O)CCOCCOCCOc5ccc6c(c5)CN(C5CCC(=O)NC5=O)C6=O)cc4s3)c(C(F)(F)F)c2)cn1", "note": "(stereo not shown) [Compound 138266]", "DC50": "> 10"},
      {"smiles": "COc1ccc2nc(-c3ccc(-c4ccnc(NC(=O)CCCOc5ccc6c(c5)CN(C5CCC(=O)NC5=O)C6=O)c4)cc3)sc2c1", "note": "(stereo not shown) [Compound 138876]", "DC50": "0.9 to 10"},
      {"smiles": "CN(C)c1ccc(-c2ccc(-c3nc4ccc(NCCOCCOCCOCCOCCOCCOc5ccc6c(c5)C(=O)N(C5CCC(=O)NC5=O)C6=O)cc4s3)cc2)cn1", "note": "(stereo not shown) [Compound 159985, 2-[2,6-bis(oxo)piperidin-3-yl]-5-[2-[2-[2-[2-[2-[2-[[2-[4-[6-(dimethylamino)-pyridin-3-yl]phenyl]-1,3-benzothiazol-6-yl]amino]ethoxy]ethoxy]ethoxy]ethoxy]ethoxy]-ethoxy]isoindole-1,3-dione]", "DC50": "> 10"},
      {"smiles": "CN(C)c1ccc(-c2ccc(-c3nc4ccc(NCCOCCOc5ccc6c(c5)C(=O)N(C5CCC(=O)NC5=O)C6=O)cc4s3)cc2)cn1", "note": "(stereo not shown) [Compound 160219, 2-[2,6-bis(oxo)piperidin-3-yl]-5-[2-[2-[[2-[4-[6-(dimethylamino)pyridin-3-yl]phenyl]-1,3-benzothiazol-6-yl]amino]ethoxy]ethoxy]isoindole-1,3-dione]", "DC50": "> 10"},
      {"smiles": "CN(C)c1ccc(-c2ccc(-c3nc4ccc(NCCOCCOCCOCCOCCOCCOc5ccc6c(c5)CN(C5CCC(=O)NC5=O)C6=O)cc4s3)cc2)cn1", "note": "(stereo not shown) [Compound 160273, 3-[6-[2-[2-[2-[2-[2-[2-[[2-[4-[6-(dimethylamino)pyridin-3-yl]phenyl]-1,3-benzothiazol-6-yl]amino]ethoxy]-ethoxy]ethoxy]ethoxy]ethoxy]ethoxy]-3-oxo-1H-isoindol-2-yl]piperidine-2,6-dione]", "DC50": "0.01 to 0.9"},
      {"smiles": "CN(C)c1ccc(-c2ccc(-c3nc4ccc(NCCOCCOc5ccc6c(c5)CN(C5CCC(=O)NC5=O)C6=O)cc4s3)cc2)cn1", "note": "(stereo not shown) [Compound 160313, 3-[6-[2-[2-[[2-[4-[6-(dimethylamino)pyridin-3-yl]phenyl]-1,3-benzothiazol-6-yl]amino]ethoxy]ethoxy]-3-oxo-1H-isoindol-2-yl]piperidine-2,6-dione]", "DC50": "> 10"},
      {"smiles": "CN(C)c1ccc2nc(-c3ccc(-c4ccc(NCCOCCN5C(=O)CCC(N6Cc7cc(O)ccc7C6=O)C5=O)nc4)cc3)sc2c1", "note": "(stereo not shown) [Compound 160624, 1-(2-(2-((5-(4-(6-(dimethylamino)benzo[d]thiazol-2-yl)phenyl)pyridin-2-yl)amino)ethoxy)ethyl)-3-(5-hydroxy-1-oxoisoindolin-2-yl)piperidine-2,6-dione]", "DC50": "> 10"},
      {"smiles": "CN(C)c1ccc(-c2ccc(-c3nc4ccc(NCCCCCOc5ccc6c(c5)C(=O)N(C5CCC(=O)NC5=O)C6=O)cc4s3)cc2)cn1", "note": "(stereo not shown) [Compound 161103, 2-[2,6-bis(oxo)piperidin-3-yl]-5-[5-[[2-[4-[6-(dimethylamino)-pyridin-3-yl]phenyl]-1,3-benzothiazol-6-yl]amino]pentoxy]isoindole-1,3-dione]", "DC50": "> 10"},
      {"smiles": "CN(C)c1ccc(-c2ccc(-c3cn4cc(OCCOCCOc5ccc6c(c5)C(=O)N(C5CCC(=O)NC5=O)C6=O)ccc4n3)cc2)c(F)n1", "note": "(stereo not shown) [Compound 161111, 2-[2,6-bis(oxo)piperidin-3-yl]-5-[2-[2-[2-[4-[6-(dimethylamino)-2-fluoro-pyridin-3-yl]phenyl]imidazo[1,2-a]pyridin-6-yl]oxyethoxy]ethoxy]isoindole-1,3-dione]", "DC50": "> 10"},
      {"smiles": "CN(C)c1ccc2nc(-c3ccc(-c4ccc(NCCOCCOc5ccc6c(c5)C(=O)N(C5CCC(=O)NC5=O)C6=O)nc4)cc3)sc2c1", "note": "(stereo not shown) [Compound 161177, 2-[2,6-bis(oxo)piperidin-3-yl]-5-[2-[2-[[5-[4-[6-(dimethylamino)-1,3-benzothiazol-2-yl]phenyl]pyridin-2-yl]amino]ethoxy]ethoxy]isoindole-1,3-dione]", "DC50": "> 10"},
      {"smiles": "COc1ccc2nc(-c3ccc(-c4ccnc(NCCOCCOc5ccc6c(c5)CN(C5CCC(=O)NC5=O)C6=O)c4)cc3)cn2c1", "note": "(stereo not shown) [Compound 162640, 3-[6-[2-[2-[[4-[4-(6-methoxyimidazo[1,2-a]pyridin-2-yl)phenyl]pyridin-2-yl]amino]ethoxy]ethoxy]-3-oxidanylidene-1H-isoindol-2-yl]piperidine-2,6-dione]", "DC50": "0.01 to 0.9"}
    ]}
  ]
}
